{"source": "patent US4153709A", "about": "“N-Heterocyclic ureas as immune regulants” (Eli Lilly and Company, priority 1977, dated 1979)", "key": {"[1]": {"test_system": "antibody response to sheep blood cells (hemaglutination titer)", "assay": "Immune regulating test: suppression of hemaglutination titer by 4-fold factor in mice (i.p. drug, i.p. sheep blood cells), Tables 1-15", "format": "in vivo, Swiss mice", "conditions": "Mus musculus, ip, 192 h, × 3, intraperitoneal, minimum dose to suppress the hemaglutination titer by a 4-fold factor, 8 days after antigen, read-out: Immuno-Suppressant ED4-Fold", "procedure,_shortened": "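Groups of five 20-gram Swiss mice received compound i.p. and sheep blood cell antigen i.p.; sera pooled per group eight days after antigen. Hemagglutination titers of pooled sera compared with controls; value is the minimum dose suppressing titer 4-fold versus control.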"}, "[2]": {"test_system": "antibody to sheep red blood cells", "assay": "75 percent reduction of control antibody titer in mice by subcutaneous, percutaneous and oral routes (Table 16)", "format": "in vivo, male Swiss mice", "conditions": "Mus musculus, Erythrocyte, × 10 daily doses commencing 3 days before antigen i.v.", "protocol": "Subcutaneous, percutaneous, and oral activity have been achieved as indicated in Table 16 which follows employing representative compounds from the above entitled application. […] Except as indicated, the tests were performed using groups of five 20-gram male Swiss mice injected with 5×10^7 sheep red blood cells intravenously for each drug level. Ten (daily) administrations of drug were made commencing three days prior to red blood cell injection. On the day following the final treatment (7 days after red blood cell injection) the animals were bled by cardiac puncture, the sera from each five-mouse-group were pooled, and antibody titers of these serum pools and corresponding serum pools from control (untreated) mouse groups were determined. The results are expressed as the minimum drug dose effecting 75 percent reduction of control antibody titer: […]"}, "[3]": {"test_system": "mouse skin graft rejection (AKR skin on C3H mice)", "assay": "Suppression of rejection of mouse-tail skin grafts (Table 19)", "format": "in vivo, mice (C3H recipients, AKR donors)", "conditions": "50 mg/kg/2 days, POT vehicle, control 19.6 ± 1.3", "from_the_text": "Compounds disclosed herein have shown activity in suppressing the rejection of mouse skin grafts. […] Albino tail skin segments (AKR strain) were grafted onto the tails of groups of ten agouti recipient mice (C3H strain). Results achieved with two therapy regimens employing 1-(6-methoxy-2-benzothiazolyl)-3-phenyl urea were as follows:\n*Treatment was commenced 3 days prior to grafting and continued every 2nd\n**50% polyethylene glycol, 40% corn oil, 10% Tween 80"}, "[4]": {"test_system": "Salmonella typhimurium G46 missense histidine-auxotroph", "assay": "Host mediated assay (in vivo mutagenicity), G46 indicator (Table 22)", "design": "species or system Salmonella typhimurium in Cox white Swiss male mice", "conditions": "s.c.", "protocol": "Cox white Swiss male mice 25-30 grams were used in all in vivo tests.\nA. Drug Administration: Appropriate solvents were used where applicable with a solvent control run within each test. […] The organisms were grown to stationary phase, then diluted with normal saline to give an inoculum near 1×10^8 organisms per milliliter. The abdominal area of the drug-treated mouse was swabbed with alcohol and two milliliters of bacterial culture were injected into the abdominal cavity of the mouse. The mice were returned to their cages for 3-4 hours.\nC. Autopsy and Recovery: The mice were sacrificed individually by cervical dislocation prior to each autopsy. The abdominal areas were soaked with ethanol. The peritoneum was bared and 2.5 ml. of sterile normal saline was injected into the peritoneal cavity using a sterile (3-ml. plastic syringe with a 20-gauge needle. After insertion, the needle is turned bevel up and the saline was expelled into the cavity; while the needle remains through the peritoneum, keeping the point of the needle in sight pressed against the peritoneal wall, the abdomen of the mouse was massaged to mix contents. The saline wash was removed from the abdominal cavity back into the syringe. The needle was removed and the contents expelled into an appropriately marked tube and iced 4° C.\nD. Dilution and Plating: One-ml. samples were plated at 10° dilution on all mice to determine revertants (histidine+).\nA one-milliliter sample from the untreated dilutions from control animals is plated 10^-6, 10^-7, and 10^-8 dilutions with excess histidine to determine mutable population (histidine-)."}, "[5]": {"test_system": "twelve histidine-auxotrophs of Salmonella typhimurium", "format": "cell-based", "protocol": "The in vivo and in vitro mutagenic potential of 1-(6-methoxy-2-benzothiazolyl)-3-phenyl-urea was negative when tested versus the twelve histidine-auxotrophs of Salmonella typhimurium at a level of 300 mg/kg in vivo and 750 mcg/ml in vitro. Imuran and Cytoxan, compounds with immunosuppressive activity; Streptozotacin, N-nitrosodimethylamine (DMNA) and trimethylenemelamine (TEM) known mutagens and/or carcinogens; and Acetylsalicylic Acid (ASA) were used as control compounds.\nThe plates were read as follows:\nCompounds found active in the qualitative test were further tested. The culture to be tested was grown to stationary phase in tryptone yeast broth and then diluted to a viable count of about 9×10^7 organisms per milliliter.\nEleven log4 dilutions of the test compound were made covering a range that would allow survival of nonlethal mutants. […] Final drug concentrations were calculated from 4-ml. volumes (3 ml. drug dilution +1 ml. test organism). Two of the \"0\" drug tubes were immediately plated at 10° dilution in minimal medium and 10^-5, 10^-6, 10^-7 dilutions in medium containing excess histidine (40 mcg/ml.) Spontaneous revertants (histidine+) were detected in the 10° dilution. Mutable population (histidine-) were detected in the 10^-5, 10^-6, and 10^-7 dilutions. […] All minimal media plates were counted. […]"}}, "note": "Like-named read-outs stand apart in the source and are kept apart here."}
{"compound": "COc1ccc2nc(NC(=O)Nc3ccccc3)sc2c1", "note": "[Table 11: phenyl, 6-CH3 O, S, 1-(6-methoxy-2-benzothiazolyl)-3-phenyl urea]", "values": [{"measurement": "minimal effective dose", "setting": "[1]", "result": "< 25", "unit": "mg/kg"}, {"measurement": "minimal effective dose", "setting": "[2]; sc, subcutaneous, read-out: Lowest Dose Producing 75% Immunosuppression, Subcutaneous", "result": "0.8 to 1.6", "unit": "mg/kg"}, {"measurement": "minimal effective dose", "setting": "[2]; oral, read-out: Lowest Dose Producing 75% Immunosuppression, Oral", "result": "12.5 to 25", "unit": "mg/kg"}, {"measurement": "minimal effective dose", "setting": "[2]; percutaneous, read-out: Lowest Dose Producing 75% Immunosuppression, Percutaneous", "result": 12.5, "unit": "mg/kg"}, {"measurement": "Allograft Survival (Days ± S.E.)", "setting": "[3]; oral", "result": "25.2 ± 2.0", "unit": "Days"}, {"measurement": "Allograft Survival (Days ± S.E.)", "setting": "[3]; subcutaneous", "result": "27.7 ± 1.0", "unit": "Days"}, {"measurement": "IN VIVO mutants test/mutants control", "setting": "[4]; 3 mg/kg", "result": ".95"}, {"measurement": "IN VIVO mutants test/mutants control", "setting": "[4]; 30 mg/kg", "result": ".95"}, {"measurement": "IN VIVO mutants test/mutants control", "setting": "[4]; 300 mg/kg, MT/MC of 3 would indicate mutagenic potential", "result": 1.2}, {"measurement": "IN VIVO mutants test/mutants control", "setting": "[4]; .3 mg/kg", "result": 1.25}, {"measurement": "in vitro mutagenic potential", "setting": "[5]; 750 mcg/ml", "result": "negative"}, {"measurement": "mutagenicity for point mutations (overall statement)", "setting": "[5]; histidine- auxotrophs of Salmonella typhimurium", "result": "non-mutagenic"}]}
